According to patent US5663201A, “Desferrioxamine-B salts” (CIBA-GEIGY Corporation, priority 1992, dated 1997):
Counter-ions that a name gives are not always drawn. Like-named read-outs stand apart in the source and are kept apart here.

Legend:
[1] = format: physicochemical; settings: n-octanol/water, 5000 µM
Experimental: (§1) The partition coefficients of the salts prepared in Examples 1 to 5 between n-octanol and water are determined by the `shake-flask` method of Leo et at, Chem. Rev., 71(6), 525 (1971).
The n-octanol and aqueous phases are mutually saturated prior to conducting the experiment. The desferrioxamine-B sulphonic acid addition salt is dissolved in the aqueous phase at a concentration of 0.005 mol/l and the partition experiment is performed by shaking the vessel containing the two phases until an equilibrium has been achieved. […] After equilibrium has been achieved, the sample is centrifuged to enable phase separation. Both organic and aqueous phases are analysed for desferrioxamine-B content via extraction of an appropriate aliquot, quenching with an aqueous (for assay of the aqueous phase) or methanolic (for assay of the n-octanol phase) solution of FeCl3, and measurement of the absorption of the characteristic ferrioxamine-B chelate at ca. 450 nm. Respective calibration plots (absorbance vs. concentration of desferrioxamine-B sulphonic acid salt) for the assay of both aqueous and organic phases show a linear response over the concentration range studied. The results obtained are as follows: […]

[2] = format: physicochemical; settings: n-octanol/phosphate buffer, pH 7.4
Experimental: as §1
The n-octanol and aqueous phases are mutually saturated prior to conducting the experiment. The desferrioxamine-B sulphonic acid addition salt is dissolved in the aqueous phase at a concentration of 0.005 mol/l and the partition experiment is performed by shaking the vessel containing the two phases until an equilibrium has been achieved. […] After equilibrium has been achieved, the sample is centrifuged to enable phase separation. Both organic and aqueous phases are analysed for desferrioxamine-B content via extraction of an appropriate aliquot, quenching with an aqueous (for assay of the aqueous phase) or methanolic (for assay of the n-octanol phase) solution of FeCl3, and measurement of the absorption of the characteristic ferrioxamine-B chelate at ca. 450 nm. Respective calibration plots (absorbance vs. concentration of desferrioxamine-B sulphonic acid salt) for the assay of both aqueous and organic phases show a linear response over the concentration range studied. The results obtained are as follows:
The partition coefficients of the salts prepared in Examples 1 to 5 between n-octanol and an aqueous phosphate buffer at pH7.4 having an ionic strength of 0.31 mol/l are determined using the procedure of Examples 6-10. The results obtained are as follows:
The use of n-octanol/aqueous media partition coefficients as a model for the lipophilicity of drugs is well established (see the abovementioned Leo et al reference). The aqueous phase in Examples 11 to 15 simulates physiological conditions.

[3] = intrinsic dissolution of tablets, Langenbucher flow-through apparatus; format: physicochemical; settings: water, 25° C.
Experimental: Tablets are prepared from the salts of Examples 1 and 4 by compressing a mixture of 99 parts of the salt and 1 part of magnesium stearate in a 13mm die for 2 minutes under a pressure of 4×10^5 kPa. The intrinsic dissolution rates of the tablets are determined using a Langenbucher flow-through apparatus, with water at 25° C. as the dissolution medium. The amount of desferrioxamine-B dissolved in the medium is measured at intervals using a spectrophotometric assay at 215 nm.

[4] = tested on: Daudi cell line (B-cell lymphoma); assay: iron-chelation bioassay: growth inhibiting effect on cells through iron removal, [3H] Thymidine uptake; format: cell-based; settings: 72 hours, Control (0 μM): Ex 18 22297, Ex 19 23897, listed as octanesulphonate
Experimental: The iron-chelating properties of salts of the invention in a biological system are determined by means of a bioassay in which the growth inhibiting effect of the salts on cells through iron removal is measured by the uptake of radioactively labelled thymidine into the cells. The bioassay is carried out using a Daudi cell line (B-cell lymphoma), a Roswell Park Memorial Institute (RPMI) 1640 medium containing 1 µM ferric citrate and supplements as low iron washing medium and RPM11640 together with 5% by weight of foetal calf serum as passaging medium.
The cells are fed 24 hours before use. They are washed twice in the low iron washing medium to remove any excess iron and diluted with this medium to a concentration of 0.2×10^6 cells/0.180 ml. To 0.180 ml aliquots are added 0.02 ml of solutions of the desferrioxamine-B salts under test in phosphate-buffered saline (PBS) to give concentrations ranging from a Control containing no salt to a […] solution. The cells are then incubated at 37° C. in an atmosphere containing 5% by volume of carbon dioxide for 72 hours, being pulsed for the last 8 hours of that time with labelled [^3 H] Thymidine at 5 micro Ci/ml. The resulting cells are harvested and their radioactive disintegrations are counted for 10 minutes. The results are shown in the table below as the average of 4 separate experiments (except the Control result in Example 18 which is the average of 3 separate experiments).

[5] = in words, U.S. Pat. No. 3,247,197; cited from earlier work

SMILES: CC(=O)N(O)CCCCCNC(=O)CCC(=O)N(O)CCCCCNC(=O)CCC(=O)N(O)CCCCCN [Example 4, octane-1-sulphonate salt of desferrioxamine-B]
- Partition Coefficient [1]: 0.121
- Partition Coefficient [2]: 0.047
- % Desferrioxaine-B salt dissolved ([3]; 1 min, listed as octanesulphonate): 1.71%
- % Desferrioxaine-B salt dissolved ([3]; 2 min, listed as octanesulphonate): 3.07%
- % Desferrioxaine-B salt dissolved ([3]; 5 min, listed as octanesulphonate): 6.88%
- % Desferrioxaine-B salt dissolved ([3]; 10 min, listed as octanesulphonate): 10.56%
- % Desferrioxaine-B salt dissolved ([3]; 15 min, listed as octanesulphonate): 14.22%
- % Desferrioxaine-B salt dissolved ([3]; 20 min, listed as octanesulphonate): 17.94%
- % Desferrioxaine-B salt dissolved ([3]; 30 min, listed as octanesulphonate): 24.73%
- % Desferrioxaine-B salt dissolved ([3]; 50 min, listed as octanesulphonate): 37.09%
- % Desferrioxaine-B salt dissolved ([3]; 75 min, listed as octanesulphonate): 48.75%
- % Desferrioxaine-B salt dissolved ([3]; 100 min, listed as octanesulphonate): 58.34%
- % Desferrioxaine-B salt dissolved ([3]; 125 min, listed as octanesulphonate): 66.38%
- % Desferrioxaine-B salt dissolved ([3]; 150 min): 72.38%
- % Desferrioxaine-B salt dissolved ([3]; 175 min, listed as octanesulphonate): 79.13%
- % Desferrioxaine-B salt dissolved ([3]; 200 min, listed as octanesulphonate): 84.91%
- % Desferrioxaine-B salt dissolved ([3]; 225 min, listed as octanesulphonate): 89.25%
- % Desferrioxaine-B salt dissolved ([3]; 250 min, listed as octanesulphonate): 92.50%
- % Desferrioxaine-B salt dissolved ([3]; 275 min, listed as octanesulphonate): 94.91%
- % Desferrioxaine-B salt dissolved ([3]; 300 min, listed as octanesulphonate): 96.34%
- intrinsic rate of release into the aqueous dissolution medium ([3]; in words): slow
- Disintegrations Per Minute ([3H] Thymidine uptake) ([4]; 0.5 μM salt): 21830 Disintegrations Per Minute
- Disintegrations Per Minute ([3H] Thymidine uptake) ([4]; 1 μM salt): 14765 Disintegrations Per Minute
- Disintegrations Per Minute ([3H] Thymidine uptake) ([4]; 2 μM salt): 7651 Disintegrations Per Minute
- Disintegrations Per Minute ([3H] Thymidine uptake) ([4]; 3 μM salt): 7109 Disintegrations Per Minute
- Disintegrations Per Minute ([3H] Thymidine uptake) ([4]; 4 μM salt): 6280 Disintegrations Per Minute
- Disintegrations Per Minute ([3H] Thymidine uptake) ([4]; 5 μM salt): 5373 Disintegrations Per Minute
- Disintegrations Per Minute ([3H] Thymidine uptake) ([4]; 6 μM salt): 4122 Disintegrations Per Minute
- Disintegrations Per Minute ([3H] Thymidine uptake) ([4]; 7.5 μM salt): 3716 Disintegrations Per Minute
- Disintegrations Per Minute ([3H] Thymidine uptake) ([4]; 10 μM salt): 2292 Disintegrations Per Minute
- Disintegrations Per Minute ([3H] Thymidine uptake) ([4]; 15 μM salt): 1065 Disintegrations Per Minute
- Disintegrations Per Minute ([3H] Thymidine uptake) ([4]; 20 μM salt): 482 Disintegrations Per Minute

SMILES: CC(=O)N(O)CCCCCNC(=O)CCC(=O)N(O)CCCCCNC(=O)CCC(=O)N(O)CCCCCN [desferrioxamine-B]
- ability to form stable complexes with trivalent metal ions [5]: marked ability to form stable complexes with trivalent metal ions, especially Fe^3+
